Series [1] can be described thus: Drug uptake in awake rhesus monkey brain medulla after 7.5 mins postinjection. Conditions: in vivo, 0.125 h. The format is ADME, organism-based, Macaca mulatta.
The nature of series [2]: Drug uptake in awake rhesus monkey brain medulla after 115 mins postinjection. It is filed as ADME, organism-based, Macaca mulatta. Conditions: in vivo.
The nature of series [3]: Ratio of drug uptake in pons to cerebellum in awake rhesus monkey after 10.5 mins postinjection. It is filed as ADME, organism-based, Macaca mulatta. Conditions: in vivo, 0.175 h.
A short description of series [4]: Drug uptake in awake rhesus monkey brain medulla after 95 mins postinjection. The format is ADME, organism-based, Macaca mulatta. Conditions: in vivo.
A short description of series [5]: Drug uptake in awake rhesus monkey brain pons after 7.5 mins postinjection. The format is ADME, organism-based, Macaca mulatta. Conditions: in vivo, 0.125 h.
Series [6] in a line: Ratio of drug uptake in putamen to cerebellum in awake rhesus monkey after 45 mins postinjection. The format is ADME, organism-based, Macaca mulatta. Conditions: in vivo, 0.75 h.
The nature of series [7]: Drug uptake in awake rhesus monkey brain medulla after 10.5 mins postinjection. The format is ADME, organism-based, Macaca mulatta. The following applies: in vivo, 0.175 h.
A short description of series [8]: Drug uptake in awake rhesus monkey brain caudate after 13.5 mins postinjection. Conditions: in vivo, 0.225 h. The format is ADME, organism-based, Macaca mulatta, Caudate nucleus.
Series [9] in a line: Drug uptake in awake rhesus monkey brain caudate after 10.5 mins postinjection. It is filed as ADME, organism-based, Macaca mulatta, Caudate nucleus. Conditions: in vivo, 0.175 h.
A short description of series [10]: Drug uptake in awake rhesus monkey brain pons after 75 mins postinjection. Conditions: in vivo, 1.25 h. The format is ADME, organism-based, Macaca mulatta.
Series [11] is described as follows: Drug uptake in awake rhesus monkey brain frontal lobe after 75 mins postinjection. The format is ADME, organism-based, Macaca mulatta. The following applies: in vivo, 1.25 h.
Series [12] in a line: Drug uptake in awake rhesus monkey brain frontal lobe after 105 mins postinjection. The format is ADME, organism-based, Macaca mulatta. The following applies: in vivo, 1.75 h.
A short description of series [13]: Ratio of drug uptake in thalamus to cerebellum in awake rhesus monkey after 17.5 mins postinjection. Conditions: in vivo. It is filed as ADME, organism-based, Macaca mulatta.
A short description of series [14]: Drug uptake in awake rhesus monkey brain cerebellum after 10.5 mins postinjection. It is filed as ADME, organism-based, Macaca mulatta. Conditions: in vivo, 0.175 h.
The nature of series [15]: Drug uptake in awake rhesus monkey brain midbrain after 25 mins postinjection. It is filed as ADME, organism-based, Macaca mulatta. The following applies: in vivo.
Series [16] in a line: Drug uptake in awake rhesus monkey brain medulla after 35 mins postinjection. The format is ADME, organism-based, Macaca mulatta. Conditions: in vivo.
Series [17] in a line: Drug uptake in awake rhesus monkey brain thalamus after 10.5 mins postinjection. The format is ADME, organism-based, Macaca mulatta. The following applies: in vivo, 0.175 h.
Series [18] is described as follows: Drug uptake in awake rhesus monkey brain medulla after 85 mins postinjection. The format is ADME, organism-based, Macaca mulatta. Conditions: in vivo.
A short description of series [19]: Drug uptake in awake rhesus monkey brain frontal lobe after 65 mins postinjection. It is filed as ADME, organism-based, Macaca mulatta. Conditions: in vivo.
A short description of series [20]: Drug uptake in awake rhesus monkey brain frontal lobe after 13.5 mins postinjection. Conditions: in vivo, 0.225 h. The format is ADME, organism-based, Macaca mulatta.
A short description of series [21]: Drug uptake in awake rhesus monkey brain midbrain after 7.5 mins postinjection. It is filed as ADME, organism-based, Macaca mulatta. The following applies: in vivo, 0.125 h.
A short description of series [22]: Drug uptake in awake rhesus monkey brain midbrain after 85 mins postinjection. It is filed as ADME, organism-based, Macaca mulatta. Conditions: in vivo.
A short description of series [23]: Drug uptake in awake rhesus monkey brain putamen after 75 mins postinjection. It is filed as ADME, organism-based, Macaca mulatta. Conditions: in vivo, 1.25 h.
Series [24] is described as follows: Ratio of drug uptake in caudate to cerebellum in awake rhesus monkey after 25 mins postinjection. The format is ADME, organism-based, Macaca mulatta. The following applies: in vivo.
Series [25] in a line: Drug uptake in awake rhesus monkey brain frontal lobe after 25 mins postinjection. The format is ADME, organism-based, Macaca mulatta. The following applies: in vivo.
A short description of series [26]: Drug uptake in awake rhesus monkey brain caudate after 55 mins postinjection. The format is ADME, organism-based, Macaca mulatta, Caudate nucleus. Conditions: in vivo.
Series [27] in a line: Drug uptake in awake rhesus monkey brain caudate after 95 mins postinjection. The format is ADME, organism-based, Macaca mulatta, Caudate nucleus. The following applies: in vivo.
Series [28] is described as follows: Drug uptake in awake rhesus monkey brain pons after 25 mins postinjection. The format is ADME, organism-based, Macaca mulatta. Conditions: in vivo.
Series [29] in a line: Drug uptake in awake rhesus monkey brain midbrain after 105 mins postinjection. Conditions: in vivo, 1.75 h. It is filed as ADME, organism-based, Macaca mulatta.
The nature of series [30]: Drug uptake in awake rhesus monkey brain caudate after 25 mins postinjection. It is filed as ADME, organism-based, Macaca mulatta, Caudate nucleus. The following applies: in vivo.
A short description of series [31]: Drug uptake in awake rhesus monkey brain midbrain after 35 mins postinjection. It is filed as ADME, organism-based, Macaca mulatta. The following applies: in vivo.
A short description of series [32]: Drug uptake in awake rhesus monkey brain thalamus after 95 mins postinjection. Conditions: in vivo. It is filed as ADME, organism-based, Macaca mulatta.
A short description of series [33]: Drug uptake in anesthetized cynomolgus monkey brain cerebellum after 55 mins postinjection. The format is ADME, organism-based, Macaca fascicularis. Conditions: in vivo.
Series [34] can be described thus: Drug uptake in anesthetized cynomolgus monkey brain frontal lobe after 135 mins postinjection. The format is ADME, organism-based, Macaca fascicularis. The following applies: in vivo, 2.25 h.
The nature of series [35]: Drug uptake in anesthetized cynomolgus monkey brain cerebellum after 145 mins postinjection. It is filed as ADME, organism-based, Macaca fascicularis. Conditions: in vivo.
Series [36] is described as follows: Drug uptake in anesthetized cynomolgus monkey brain occipital lobe after 12.5 mins postinjection. It is filed as ADME, organism-based, Macaca fascicularis. The following applies: in vivo.
Series [37] in a line: Ratio of drug uptake in medulla to cerebellum in anesthetized cynomolgus monkey after 6.5 mins postinjection. The format is ADME, organism-based, Macaca fascicularis. Conditions: in vivo.
Series [38] can be described thus: Ratio of drug uptake in thalamus to cerebellum in anesthetized cynomolgus monkey after 205 mins postinjection. It is filed as ADME, organism-based, Macaca fascicularis. Conditions: in vivo.
Series [39] can be described thus: Drug uptake in anesthetized cynomolgus monkey brain cerebellum after 125 mins postinjection. It is filed as ADME, organism-based, Macaca fascicularis. Conditions: in vivo.
The nature of series [40]: Drug uptake in anesthetized cynomolgus monkey brain occipital lobe after 185 mins postinjection. It is filed as ADME, organism-based, Macaca fascicularis. Conditions: in vivo.
Series [41] is described as follows: Ratio of drug uptake in caudate to cerebellum in anesthetized cynomolgus monkey after 195 mins postinjection. It is filed as ADME, organism-based, Macaca fascicularis. The following applies: in vivo, 3.25 h.
Series [42] is described as follows: Ratio of drug uptake in caudate to cerebellum in anesthetized cynomolgus monkey after 185 mins postinjection. The format is ADME, organism-based, Macaca fascicularis. Conditions: in vivo.

The structures appear in SMILES notation.

Turning to `O=C(OCC[18F])C1C2CCC(CC1c1ccc(/C=C\I)cc1)N2` (configuration not stated), the Drug uptake in [1] turned out to be 1.51; in [2], 2.57; in series [4], 2.35; in [5], 1.24; in [7], 1.79; in [8], 1.87. Moreover, the Drug uptake in series [9] was found to be 1.73; in series [10], 2.75; in series [11], 2.18; in [12] it was 2.07; in series [14] it was 1.66; in series [15], 2.46. In addition, the Drug uptake in series [16] was determined as 2.46; in series [17], 1.89; in series [18], 2.66; in series [19] it was 2.25; in series [20], 1.57; in series [21], 1.35. Besides, the Drug uptake in series [22] was 2.99; in series [23], 3.38; in series [25] it was 2.16; in series [26], 3.11; in series [27], 3.19; in [28], 2.29. The Drug uptake in [29] was 3.24; in [30] it was 2.75; in [31], 2.7; in [32], 3.79. Besides, the Ratio is recorded as 0.9 in series [3], 1.6 in series [6], 1.3 in series [13] and 1.3 in series [24].
`O=C(OCCC[18F])C1C2CCC(CC1c1cccc(/C=C\I)c1)N2` (configuration not stated): the Drug uptake in [33] is reported as 4.31; in series [34], 2.35; in series [35] it was 2.4; in series [36] it was 3.6; in [39] it was 2.79; in [40], 2.39. For the same compound, the Ratio is 1 in series [37], 1.6 in series [38], 1.3 in series [41] and 1.3 in [42].

These data come from ChEMBL document CHEMBL1151757, “Synthesis, radiosynthesis, and biological evaluation of fluorine-18-labeled 2beta-carbo(fluoroalkoxy)-3beta-(3'-((Z)-2-haloethenyl)phenyl)nortropanes: candidate radioligands for in vivo imaging of the serotonin transporter with positron emission tomography” (J Med Chem, 2008).
